Test results as given in patent US6825185B2, “Substituted aryl compounds as novel cyclooxygenase-2 selective inhibitors, compositions and methods of use” (NitroMed, Inc., priority 2000, dated 2004).

Tests used:
[1] = target: COX-1 (Homo sapiens, UniProt P23219); assay: Human COX-1 enzyme activity (COX Inhibitor Screening Assay, prostaglandin EIA); type: biochemical; parameters: purchased Cayman Chemical; details: test compound at 100 μM
Method: The human COX-1 and COX-2 enzyme activities and the measurement of the prostaglandin products synthesized were performed using the COX Inhibitor Screening Assay (Cayman Chemical, Ann Arbor, Mich.), which also contained the Prostaglandin Screening EIA Kit, used for prostaglandin quantification). The test compounds were dissolved at 50 times the highest final reaction concentration in DMSO or any other suitable solvent as stock solutions. These stock solutions were then diluted in the same solvent. Eight glass test tubes (13×100 mm) were placed in a 25° C. water bath. To each test tube was added 950 μL of reaction buffer (0.1 M Tris-HCl, pH 8.0, containing 5 mM EDTA, and 2 mM phenol), 10 μL of 100 µM heme solution, and 10 μL (5 units) of either human COX-1 or COX-2 enzyme and the resulting mixture was incubated for 2 minutes. Twenty μL of the solvent was added to one tube (100% initial activity or solvent control) and 20 μL of each dilution of the test compound was added to one tube each. Each tube was vortexed immediately after the addition. The enzyme was incubated with the inhibitor for 20 minutes at 25° C. The enzymatic reaction was then initiated by the addition of 10 μL of freshly prepared 10 mM arachidonic acid (neutralized with KOH), vortexed and then incubated for 2 minutes (or, in some cases as indicated, 30 seconds) at 37° C. The reaction was terminated by the addition of 50 μL of 1 M HCl, vortexed and placed at room temperature. One hundred μL of a saturated stannous chloride solution (50 mg/mL of 0.1 M HCl) was added and the reaction mixture was allowed to stand at room temperature for at least 5 minutes.
The prostaglandins (PG) produced in the reactions were assayed, after a 2,000-fold dilution, using the Prostaglandin Screening EIA Kit (Cayman Chemical, Ann Arbor, Mich.). The assay contains an antibody with broad specificity for all the prostaglandin families (PGF, PGE, PGD, and thromboxane B-type) synthesized in the COX-1/COX-2 reactions. The synthesized prostaglandin competes with a PG-tagged acetylcholine esterase tracer for binding to the PG antibody. Binding of synthesized PG lowers the colorimetric development of the Ellman's Reagent (computed as %B/B0). The actual amount of synthesized PG was interpolated from a standard curve using known amounts of supplied prostaglandin E2 (PGE2) (PGE2 concentration vs. %B/B0). The data generated were the mean±standard deviation of triplicate wells in the EIA for a single reaction at a given inhibitor concentration. A plot of % of control (i.e., the solvent control without inhibitor) vs. test compound inhibitor concentration for both isoenzymes was used to determine the IC50 's for COX-1 and COX-2 for that test compound, when IC50's were calculated. The % inhibition for COX-1 and COX-2 enzyme activity by the test compounds at the indicated concentrations are given in Table 1.

[2] = target: T1, COX-2 (Homo sapiens, UniProt P35354); assay: COX-2 enzyme activity in human whole blood (LPS induced, thromboxane B2 EIA); type: cell-based; parameters: Human blood (≈50 mL) from male or female donors who had not received any aspirin or NSAIDs for 14 days; endogenous in cells; host or cells: human whole blood from donors, LPS-induced; details: test compound at 10 μM
T1 sequence (P35354 18-604): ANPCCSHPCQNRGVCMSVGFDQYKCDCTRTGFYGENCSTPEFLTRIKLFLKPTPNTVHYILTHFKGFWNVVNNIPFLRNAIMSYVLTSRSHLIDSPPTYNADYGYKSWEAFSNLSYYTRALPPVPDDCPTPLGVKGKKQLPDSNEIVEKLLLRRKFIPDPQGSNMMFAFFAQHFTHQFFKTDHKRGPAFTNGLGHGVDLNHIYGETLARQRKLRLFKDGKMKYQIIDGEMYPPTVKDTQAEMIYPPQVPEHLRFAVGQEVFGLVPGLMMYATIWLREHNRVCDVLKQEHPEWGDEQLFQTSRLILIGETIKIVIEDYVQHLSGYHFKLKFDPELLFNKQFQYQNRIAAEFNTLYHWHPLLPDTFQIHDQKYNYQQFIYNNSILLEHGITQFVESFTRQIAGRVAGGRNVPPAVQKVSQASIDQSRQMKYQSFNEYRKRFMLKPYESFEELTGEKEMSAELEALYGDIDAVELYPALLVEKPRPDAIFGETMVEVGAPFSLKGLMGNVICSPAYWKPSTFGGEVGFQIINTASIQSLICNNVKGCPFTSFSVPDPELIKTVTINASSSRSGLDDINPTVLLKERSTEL

COX-1, sequence (P23219 24-599): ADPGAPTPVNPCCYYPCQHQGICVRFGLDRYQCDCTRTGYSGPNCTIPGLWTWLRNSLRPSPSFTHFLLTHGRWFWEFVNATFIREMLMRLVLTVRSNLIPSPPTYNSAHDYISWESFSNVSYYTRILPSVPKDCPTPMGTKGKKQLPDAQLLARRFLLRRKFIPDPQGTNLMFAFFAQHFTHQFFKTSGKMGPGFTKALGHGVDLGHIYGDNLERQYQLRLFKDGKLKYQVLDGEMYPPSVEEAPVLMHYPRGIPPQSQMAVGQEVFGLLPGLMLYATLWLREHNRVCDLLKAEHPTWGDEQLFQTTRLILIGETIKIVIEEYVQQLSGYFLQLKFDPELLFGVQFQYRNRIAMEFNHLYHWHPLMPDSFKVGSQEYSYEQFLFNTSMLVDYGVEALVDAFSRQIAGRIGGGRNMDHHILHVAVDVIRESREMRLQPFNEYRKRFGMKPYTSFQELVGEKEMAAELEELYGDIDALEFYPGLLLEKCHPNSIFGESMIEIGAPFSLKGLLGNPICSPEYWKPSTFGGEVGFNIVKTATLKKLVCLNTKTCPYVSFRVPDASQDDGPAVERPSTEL

| SMILES | COX-1 Inhibition (% at 100 μM) [1] [%] | COX-2 Inhibition (% at 10 μM) [2] [%] |
| --- | --- | --- |
| CS(=O)(=O)c1ccc(-c2cc3c(cc2CC2CCCCC2)OCO3)cc1 [Example 1e, 1-(6-(Cyclohexylmethyl)(2-H-benzo(3,4-d)1,3-dioxolen-5-yl))-4-(methylsulfonyl) benzene] | 0 | 90 |
| CS(=O)(=O)c1ccc(-c2cc3c(cc2C(=O)c2ccccc2)OCO3)cc1 [Example 3d, 6-(4-(Methylsulfonyl)phenyl)(2H-benzo(d)1,3-dioxolan-5-yl) phenyl ketone] | 0 | 60 |
| CS(=O)(=O)c1ccc(-c2cc3c(cc2Cc2cccnc2)OCO3)cc1 [Example 6c, 4-(Methylsulfonyl)-1-(6-(3-pyridylmethyl)(2H-benzo(3,4-d)1,3-dioxolan-5-yl))benzene] | 30 | 10 |
| CS(=O)(=O)c1ccc(-c2cc3c(cc2CN2CCCCC2=O)OCO3)cc1 [Example 9c] | 70 | 30 |
| CS(=O)(=O)c1ccc(-c2cc3c(cc2C=C2CCCC2)OCO3)cc1 [Example 10a, 4-(6-(Cyclopentylidenemethyl)(2H-benzo(3,4-d)1,3-dioxolan-5-yl))-1-(methylsulfonyl)benzene] | 30 | 90 |
| CS(=O)(=O)c1ccc(-c2cc3c(cc2Cc2cc(F)cc(F)c2)OCO3)cc1 [Example 15c, 5-(1-(3′,5′-Difluorophenyl)methyl)-1,2-methylenedioxy-4-(4-methylsulfonylphenyl)benzene] | 15 | 85 |
